Test system: 565232-114-T-J1-PDC complex spheroid viability
Test: Anticancer human tumor 565232-114-T-J1-PDC patient-derived bladder carcinoma cell line growth inhibition [CLK]
Details: for IC50: curve of first compound; for viability, T/C: stronger effect = lower value
Summary of the method: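 Patient-derived tumor cells grown as complex spheroids with HUVEC endothelial cells and mesenchymal stem cells, treated with drug combinations. Concentrations descend in half-log steps from near clinical Cmax, or from 10 microM if Cmax unknown.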

[1] = second compound 0.0316 µM, first compound 0.00949 µM
[2] = second compound 0.0316 µM, first compound 0.03 µM
[3] = second compound 0.0316 µM, first compound 0.0949 µM
[4] = second compound 0.0316 µM, first compound 0.3 µM
[5] = second compound 0.1 µM, first compound 0.00949 µM
[6] = second compound 0.1 µM, first compound 0.03 µM
[7] = second compound 0.1 µM, first compound 0.0949 µM
[8] = second compound 0.1 µM, first compound 0.3 µM
[9] = second compound 0.316 µM, first compound 0.00949 µM
[10] = second compound 0.316 µM, first compound 0.03 µM
[11] = second compound 0.316 µM, first compound 0.0949 µM
[12] = second compound 0.316 µM, first compound 0.3 µM
[13] = second compound 1 µM, first compound 0.00949 µM
[14] = second compound 1 µM, first compound 0.03 µM
[15] = second compound 1 µM, first compound 0.0949 µM
[16] = second compound 1 µM, first compound 0.3 µM
[17] = second compound 3.16 µM, first compound 0.00949 µM
[18] = second compound 3.16 µM, first compound 0.03 µM
[19] = second compound 3.16 µM, first compound 0.0949 µM
[20] = second compound 3.16 µM, first compound 0.3 µM
[21] = second compound 10 µM, first compound 0.00949 µM
[22] = second compound 10 µM, first compound 0.03 µM
[23] = second compound 10 µM, first compound 0.0949 µM
[24] = second compound 10 µM, first compound 0.3 µM
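Also: spheroids exposed to compounds for 7 days before readout.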
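For viability, T/C in this document: 100% = DMSO vehicle wells with luminescence normalized to vehicle control.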

For `C=CC(=O)Nc1cc(Nc2nccc(-c3cn(C)c4ccccc34)n2)c(OC)cc1N(C)CCN(C)C` + CN1CCN(c2cc(C(=O)Nc3cc4cc(-c5cnn(C)c5)ccc4cn3)ccn2)CC1, the IC50 (second compound 0.0316 µM) was > 300 nM, the IC50 (second compound 0.1 µM) was > 300 nM and the IC50 (second compound 0.316 µM) was < 0.949 nM. For the same molecule, the IC50 (second compound 1 µM) was < 0.949 nM, the IC50 (second compound 3.16 µM) was < 0.949 nM and the IC50 (second compound 10 µM) was < 0.949 nM. The viability, T/C (second compound 0.0316 µM, first compound 0.000949 µM) was 104%, the viability, T/C (second compound 0.0316 µM, first compound 0.003 µM) was 95.3% and the viability, T/C [1] was 106%. For the same molecule, the viability, T/C [2] was 84.1%, the viability, T/C [3] was 90.6% and the viability, T/C [4] was 83.7%. It also gave a viability, T/C (second compound 0.1 µM, first compound 0.000949 µM) of 97.5%, a viability, T/C (second compound 0.1 µM, first compound 0.003 µM) of 85.8% and a viability, T/C [5] of 110%. The viability, T/C [6] was 89.3%, the viability, T/C [7] was 97.9% and the viability, T/C [8] was 94.5%. The viability, T/C (second compound 0.316 µM, first compound 0.000949 µM) was 14.9%, the viability, T/C (second compound 0.316 µM, first compound 0.003 µM) was 20.3% and the viability, T/C [9] was 20.1%. The viability, T/C [10] was 20.5%, the viability, T/C [11] was 18.7% and the viability, T/C [12] was 18.3%. The viability, T/C (second compound 1 µM, first compound 0.000949 µM) was 0.2%, the viability, T/C (second compound 1 µM, first compound 0.003 µM) was 0.26% and the viability, T/C [13] was 1.8%. For the same molecule, the viability, T/C [14] was 0.2%, the viability, T/C [15] was 0.2% and the viability, T/C [16] was 1.48%. The viability, T/C (second compound 3.16 µM, first compound 0.000949 µM) was 0.23%, the viability, T/C (second compound 3.16 µM, first compound 0.003 µM) was 0.22% and the viability, T/C [17] was 1.48%. The viability, T/C [18] was 0.22%, the viability, T/C [19] was 0.91% and the viability, T/C [20] was 0.82%. For the same molecule, the viability, T/C (second compound 10 µM, first compound 0.000949 µM) was 0.23%, the viability, T/C (second compound 10 µM, first compound 0.003 µM) was 0.26% and the viability, T/C [21] was 1.25%. It also gave a viability, T/C [22] of 1.11%, a viability, T/C [23] of 1.9% and a viability, T/C [24] of 1.19%.
For `NC(=O)C(=Cn1cnc(-c2cc(C(F)(F)F)cc(C(F)(F)F)c2)n1)c1cncnc1` + CN1CCN(c2cc(C(=O)Nc3cc4cc(-c5cnn(C)c5)ccc4cn3)ccn2)CC1, the IC50 (second compound 0.0316 µM) was 384 nM, the IC50 (second compound 0.1 µM) was 190 nM and the IC50 (second compound 0.316 µM) was < 9.49 nM. The IC50 (second compound 1 µM) was < 9.49 nM, the IC50 (second compound 3.16 µM) was < 9.49 nM and the IC50 (second compound 10 µM) was < 9.49 nM. It also gave a viability, T/C [1] of 110%, a viability, T/C [2] of 79.4% and a viability, T/C [3] of 116%. It also gave a viability, T/C [4] of 63%, a viability, T/C (second compound 0.0316 µM, first compound 0.949 µM) of 2.12% and a viability, T/C (second compound 0.0316 µM, first compound 3 µM) of 2.86%. The viability, T/C [5] was 112%, the viability, T/C [6] was 89.6% and the viability, T/C [7] was 69.7%. It also gave a viability, T/C [8] of 44.2%, a viability, T/C (second compound 0.1 µM, first compound 0.949 µM) of 1.42% and a viability, T/C (second compound 0.1 µM, first compound 3 µM) of 0.17%. The viability, T/C [9] was 11.2%, the viability, T/C [10] was 19.1% and the viability, T/C [11] was 4.82%. For the same molecule, the viability, T/C [12] was 0.31%, the viability, T/C (second compound 0.316 µM, first compound 0.949 µM) was 0.21% and the viability, T/C (second compound 0.316 µM, first compound 3 µM) was 0.15%. The viability, T/C [13] was 0.13%, the viability, T/C [14] was 1.42% and the viability, T/C [15] was 0.31%. For the same molecule, the viability, T/C [16] was 0.24%, the viability, T/C (second compound 1 µM, first compound 0.949 µM) was 0.19% and the viability, T/C (second compound 1 µM, first compound 3 µM) was 0.08%. For the same molecule, the viability, T/C [17] was 0.19%, the viability, T/C [18] was 0.22% and the viability, T/C [19] was 3.11%. For the same molecule, the viability, T/C [20] was 0.24%, the viability, T/C (second compound 3.16 µM, first compound 0.949 µM) was 1.65% and the viability, T/C (second compound 3.16 µM, first compound 3 µM) was 0.16%. It also gave a viability, T/C [21] of 0.14%, a viability, T/C [22] of 0.12% and a viability, T/C [23] of 1.13%. It also gave a viability, T/C [24] of 0.76%, a viability, T/C (second compound 10 µM, first compound 0.949 µM) of 0.21% and a viability, T/C (second compound 10 µM, first compound 3 µM) of 0.37%.
For `Nc1ccccc1NC(=O)c1ccc(CNC(=O)OCc2cccnc2)cc1` + CN1CCN(c2cc(C(=O)Nc3cc4cc(-c5cnn(C)c5)ccc4cn3)ccn2)CC1, the IC50 (second compound 0.0316 µM) was 5260 nM, the IC50 (second compound 0.1 µM) was 2660 nM and the IC50 (second compound 0.316 µM) was < 31.6 nM. For the same molecule, the IC50 (second compound 1 µM) was < 31.6 nM, the IC50 (second compound 3.16 µM) was < 31.6 nM and the IC50 (second compound 10 µM) was < 31.6 nM. The viability, T/C (second compound 0.0316 µM, first compound 0.0316 µM) was 110%, the viability, T/C (second compound 0.0316 µM, first compound 0.1 µM) was 108% and the viability, T/C (second compound 0.0316 µM, first compound 0.316 µM) was 111%. It also gave a viability, T/C (second compound 0.0316 µM, first compound 1 µM) of 100%, a viability, T/C (second compound 0.0316 µM, first compound 3.16 µM) of 89.8% and a viability, T/C (second compound 0.0316 µM, first compound 10 µM) of 1.38%. The viability, T/C (second compound 0.1 µM, first compound 0.0316 µM) was 107%, the viability, T/C (second compound 0.1 µM, first compound 0.1 µM) was 93.5% and the viability, T/C (second compound 0.1 µM, first compound 0.316 µM) was 92.5%. For the same molecule, the viability, T/C (second compound 0.1 µM, first compound 1 µM) was 89.9%, the viability, T/C (second compound 0.1 µM, first compound 3.16 µM) was 42.9% and the viability, T/C (second compound 0.1 µM, first compound 10 µM) was 0.29%. It also gave a viability, T/C (second compound 0.316 µM, first compound 0.0316 µM) of 16.2%, a viability, T/C (second compound 0.316 µM, first compound 0.1 µM) of 23% and a viability, T/C (second compound 0.316 µM, first compound 0.316 µM) of 11.5%. The viability, T/C (second compound 0.316 µM, first compound 1 µM) was 9.54%, the viability, T/C (second compound 0.316 µM, first compound 3.16 µM) was 2.07% and the viability, T/C (second compound 0.316 µM, first compound 10 µM) was 0.07%. For the same molecule, the viability, T/C (second compound 1 µM, first compound 0.0316 µM) was 0.15%, the viability, T/C (second compound 1 µM, first compound 0.1 µM) was 1.24% and the viability, T/C (second compound 1 µM, first compound 0.316 µM) was 3.47%. The viability, T/C (second compound 1 µM, first compound 1 µM) was 0.16%, the viability, T/C (second compound 1 µM, first compound 3.16 µM) was 1.45% and the viability, T/C (second compound 1 µM, first compound 10 µM) was 0.11%. The viability, T/C (second compound 3.16 µM, first compound 0.0316 µM) was 0.3%, the viability, T/C (second compound 3.16 µM, first compound 0.1 µM) was 3.93% and the viability, T/C (second compound 3.16 µM, first compound 0.316 µM) was 3.86%. The viability, T/C (second compound 3.16 µM, first compound 1 µM) was 0.23%, the viability, T/C (second compound 3.16 µM, first compound 3.16 µM) was 0.19% and the viability, T/C (second compound 3.16 µM, first compound 10 µM) was 0.18%. The viability, T/C (second compound 10 µM, first compound 0.0316 µM) was 0.11%, the viability, T/C (second compound 10 µM, first compound 0.1 µM) was 0.5% and the viability, T/C (second compound 10 µM, first compound 0.316 µM) was 2.65%. For the same molecule, the viability, T/C (second compound 10 µM, first compound 1 µM) was 0.16%, the viability, T/C (second compound 10 µM, first compound 3.16 µM) was 0.94% and the viability, T/C (second compound 10 µM, first compound 10 µM) was 0.18%.

Reference: PubChem BioAssay AID2060612 (Molecular Pharmacology Branch, DTP, NCI, 2025)
